Test systems include HOP-62 NSCLC; HS 578T breast; K-562 leukemia; OVCAR-8 ovarian; SF-268 CNS; SN12C renal; T-47D breast.
Holding throughout (experiment): DTP human tumour cell line panel, 48 h

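Step 1: Grow cells in 96-well plates. Step 2: Expose to compound for 48 hours at 5 concentrations. Step 3: Interpolate endpoints linearly; if unreached, use highest concentration. The concentration for 50% growth inhibition is given as GI50. TGI is the concentration that stops growth completely.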

As for `CC1CC(C)C2=NOS3=C2C1=NO3` (configuration not stated), the TGI in the assay on HOP-62 NSCLC, in the assay with HS 578T breast, with K-562 leukemia, with OVCAR-8 ovarian, in the assay on SF-268 CNS and in the assay with SN12C renal was above 100 µM each time. Besides, the TGI in the assay on T-47D breast is above 100 µM.
Regarding `O=c1c(-c2ccc(O)cc2)coc2cc(OC3OC(CO)C(O)C(O)C3O)cc(O)c12` (configuration not stated), the GI50 in the assay with HOP-62 NSCLC was above 100 µM; with K-562 leukemia, above 100 µM; in the assay on SF-268 CNS, above 10 µM; in the assay with T-47D breast it was above 100 µM. For the same compound, the TGI with HOP-62 NSCLC, in the assay with HS 578T breast, in the assay with K-562 leukemia, in the assay with OVCAR-8 ovarian, in the assay with SF-268 CNS and with SN12C renal was above 100 µM each time. The compound further showed a TGI in the assay with T-47D breast above 100 µM.
Consider `C1CCN2CC3CCCN4CCCC(C2C1)C34` (configuration not stated), for which the TGI in the assay with HOP-62 NSCLC, in the assay on HS 578T breast, with K-562 leukemia, in the assay with OVCAR-8 ovarian, with SF-268 CNS and in the assay on SN12C renal was above 100 µM throughout. The TGI in the assay on T-47D breast is above 100 µM.
For the compound `COc1ccc2c(c1)C(=O)c1c-2n(CCCN)c(=O)c2cc(OC)c(OC)cc12`, the GI50 is below 0.01 µM with HOP-62 NSCLC, 2.2 µM in the assay on HS 578T breast, 0.515 µM in the assay with SF-268 CNS and 0.112 µM in the assay with SN12C renal. Besides, the concentration for total growth inhibition (TGI) in the assay on HOP-62 NSCLC was 0.133 µM; in the assay on HS 578T breast, 4.81 µM; in the assay on SN12C renal, 1.51 µM.
As for `Nc1nc(N)c(N=Nc2ccc(C(=O)O)c(O)c2)c(N)n1`, the TGI with HOP-62 NSCLC, with HS 578T breast, with K-562 leukemia, in the assay on OVCAR-8 ovarian, in the assay with SF-268 CNS and in the assay on SN12C renal was above 100 µM throughout.
For the compound `O=S(=O)(Nc1ccc2ccccc2c1)c1ccc(-c2cnc(C3CC3)o2)cc1`, the GI50 with HOP-62 NSCLC was 1.3 µM; with HS 578T breast, 0.811 µM; in the assay on K-562 leukemia it was 0.394 µM; with OVCAR-8 ovarian, 2.88 µM; with SF-268 CNS it was 3.44 µM; in the assay on SN12C renal it was 3.69 µM. Also, the GI50 in the assay with T-47D breast was 1.01 µM. Moreover, the TGI in the assay on HOP-62 NSCLC is 17.1 µM; in the assay on HS 578T breast it was 13.2 µM; in the assay on K-562 leukemia, above 100 µM; in the assay on OVCAR-8 ovarian, 67.1 µM; in the assay on SF-268 CNS, 24.5 µM; in the assay with SN12C renal, 17.3 µM. Further, the total growth inhibition concentration (TGI) in the assay with T-47D breast was 58.3 µM.
Regarding `CC(C)CCC(=O)[C@@H](C)[C@H]1[C@@H](OC2OCC(O)C(O)C2NS(C)(=O)=O)C[C@H]2[C@@H]3CC=C4C[C@@H](O)CC[C@]4(C)[C@H]3CC[C@]12C` (some centres not stated), the GI50 in the assay on HOP-62 NSCLC was 1.26 µM; in the assay on HS 578T breast, 0.423 µM; with K-562 leukemia, 1.37 µM; with OVCAR-8 ovarian, 7.63 µM; with SF-268 CNS, 1.25 µM; in the assay with SN12C renal, 8.36 µM. Further, in the assay on T-47D breast, the GI50 is 3.93 µM. Moreover, the TGI was 6.34 µM in the assay on HOP-62 NSCLC; 3.41 µM in the assay on HS 578T breast; 5.55 µM with K-562 leukemia; 37.2 µM with OVCAR-8 ovarian; 6.99 µM in the assay with SF-268 CNS; above 40 µM in the assay with SN12C renal. In the assay with T-47D breast, this compound gave a TGI of 23 µM.
Take `O=C(Nc1ccc2c(c1)OCO2)C(=O)c1c[nH]c2cc(F)ccc12`: the GI50 in the assay on HOP-62 NSCLC was 5.11 µM; in the assay with HS 578T breast, 2.63 µM; with K-562 leukemia, 0.6 µM; in the assay with OVCAR-8 ovarian, 3.89 µM; with SF-268 CNS, 4.52 µM; in the assay with SN12C renal, 38.3 µM. Besides, the GI50 with T-47D breast is 1.75 µM. In addition, the TGI in the assay with HOP-62 NSCLC is 21.9 µM; with HS 578T breast, 62.7 µM; in the assay with K-562 leukemia, 20.8 µM; in the assay on OVCAR-8 ovarian, 23.6 µM; in the assay with SF-268 CNS, 22.1 µM; with SN12C renal, above 100 µM. In the assay with T-47D breast, this compound came in with a TGI above 100 µM.
Consider `COc1cc(/C=C\c2cc(/C=C\c3ccc(O)c(OC)c3)n(C(=O)CNc3ccc(Cl)cc3)n2)ccc1O`, for which the GI50 in the assay with HOP-62 NSCLC is 4.14 µM; in the assay on HS 578T breast, 4.36 µM; in the assay with K-562 leukemia it was 2.59 µM; with OVCAR-8 ovarian, 3.63 µM; in the assay with SF-268 CNS, 2.49 µM; in the assay on SN12C renal, 3.18 µM. For the same compound, the GI50 in the assay with T-47D breast is 2.79 µM. Besides, the TGI is 16.7 µM in the assay on HOP-62 NSCLC; above 100 µM in the assay with HS 578T breast; 12.3 µM in the assay with K-562 leukemia; 13.9 µM with OVCAR-8 ovarian; 14.9 µM with SF-268 CNS; 20.6 µM in the assay with SN12C renal. Further, the TGI with T-47D breast was 16 µM.
In the case of `COc1ccc(CNc2cnc3cc(N)cc(N)c3n2)cc1`, the GI50 is 35.9 µM in the assay on HOP-62 NSCLC; 24.2 µM in the assay on HS 578T breast; 10.7 µM in the assay on K-562 leukemia; 19.7 µM with OVCAR-8 ovarian; 28.9 µM in the assay with SF-268 CNS; 18.4 µM in the assay on SN12C renal. The GI50 in the assay with T-47D breast was 73.8 µM. For the same compound, the total growth inhibition concentration (TGI) with HOP-62 NSCLC is above 100 µM; in the assay with HS 578T breast, 69.3 µM; with K-562 leukemia it was 29.3 µM; in the assay with OVCAR-8 ovarian it was 39.8 µM; with SF-268 CNS, 81.8 µM; with SN12C renal, 32.9 µM. In addition, in the assay on T-47D breast, the TGI was above 100 µM.
Turning to `CCCN1C(=O)/C(=C/c2ccc(O)cc2)SC1=Nc1ccc(OC)cc1`, the GI50 with HOP-62 NSCLC was 28 µM; in the assay on HS 578T breast, 4.48 µM; in the assay on K-562 leukemia it was 12.5 µM; in the assay on OVCAR-8 ovarian, 18.2 µM; in the assay on SF-268 CNS, 17.3 µM; with SN12C renal, 16.8 µM. Moreover, the total growth inhibition concentration (TGI) was 80 µM in the assay on HOP-62 NSCLC; 23.3 µM with HS 578T breast; above 100 µM with K-562 leukemia; 37.1 µM in the assay with OVCAR-8 ovarian; 74.9 µM in the assay on SF-268 CNS; 34.5 µM in the assay with SN12C renal.
As for `O=C(NNC(=S)Nc1ccccc1)c1ccccn1`, the GI50 with HOP-62 NSCLC is 5.52 µM; in the assay with HS 578T breast, 23.7 µM; with K-562 leukemia, 3.95 µM; in the assay with OVCAR-8 ovarian, 2.69 µM; in the assay on SF-268 CNS, 2.66 µM; with SN12C renal, 2.99 µM. Further, the GI50 in the assay with T-47D breast was 6.55 µM. Besides, the TGI with HOP-62 NSCLC, in the assay with HS 578T breast, in the assay with K-562 leukemia, with OVCAR-8 ovarian, in the assay with SF-268 CNS and in the assay with SN12C renal was above 100 µM in each case. Further, the TGI in the assay with T-47D breast is above 100 µM.
As to `C=C1NC(=O)C(CC(C(=O)C(=O)Nc2c(C)cccc2C(C)(C)C)C(=O)c2ccc3ccccc3c2)C(=O)N1` (configuration not stated), the TGI in the assay with HS 578T breast, with K-562 leukemia, in the assay on OVCAR-8 ovarian, in the assay with SF-268 CNS, in the assay on SN12C renal and in the assay on T-47D breast was above 100 µM each time.
On to `CO[C@@H]1[C@H]2[C@@H](C)c3ccoc3C[C@@H]2[C@@]2(C)CC[C@H](OC(=O)c3ccccc3)[C@](C)(C(=O)O)[C@]2(O)[C@@H]1OC(=O)c1ccccc1`, for which the GI50 in the assay on HS 578T breast is 24.8 µM; in the assay with K-562 leukemia it was 15.4 µM; with OVCAR-8 ovarian, 14.3 µM; in the assay with SF-268 CNS, 21.2 µM; with SN12C renal, 7.11 µM. The TGI was above 50 µM with HS 578T breast; above 50 µM in the assay with K-562 leukemia; above 50 µM in the assay on OVCAR-8 ovarian; above 50 µM with SF-268 CNS; 17 µM in the assay on SN12C renal.
`COC(=O)C1=C(C(=O)OC)C2OC1c1cc3ccccc3cc12`: the TGI with HOP-62 NSCLC stood at 34.7 µM; in the assay on HS 578T breast, 43.6 µM; in the assay on OVCAR-8 ovarian, 13.6 µM; in the assay on SF-268 CNS, 34.9 µM; in the assay on SN12C renal, 30.8 µM; in the assay on T-47D breast, 7.49 µM.
Turning to `C=C1C(=O)OC2CC3(C)CCCC(C)C3=CC12` (configuration not stated), the TGI is 36.6 µM in the assay on HS 578T breast; 6.61 µM with K-562 leukemia; 37.3 µM with OVCAR-8 ovarian; 23.1 µM in the assay with SF-268 CNS; 12.2 µM in the assay with SN12C renal; 11 µM with T-47D breast.
Turning to `CC(=O)C1CCC2C3CC=C4CC(SC(=N)N)CCC4(C)C3CCC12C` (configuration not stated), the GI50 in the assay with HOP-62 NSCLC is 1.93 µM; in the assay on HS 578T breast, 2.56 µM; with SF-268 CNS it was 3.11 µM; with T-47D breast it was 2.02 µM. Further, the TGI with HOP-62 NSCLC stood at 3.6 µM; in the assay on HS 578T breast, 11.3 µM; in the assay with SF-268 CNS, 16.1 µM; in the assay on T-47D breast, 4.85 µM.
With `COc1ccc2c(c1)N(CCO)C1=C(C(=O)OC1)C2c1ccccc1` (configuration not stated), the GI50 with HOP-62 NSCLC is 2.18 µM; with HS 578T breast, 1.39 µM; with K-562 leukemia it was 1.23 µM; with OVCAR-8 ovarian it was 2.03 µM; with SF-268 CNS, 2.64 µM; in the assay with SN12C renal, 3.7 µM. Besides, the TGI is above 50 µM with HOP-62 NSCLC; 4.99 µM with HS 578T breast; above 50 µM with K-562 leukemia; above 50 µM in the assay on OVCAR-8 ovarian; above 50 µM with SF-268 CNS; above 50 µM in the assay on SN12C renal.
With `CCc1nc2cc(/C=C/C(=O)NO)ccc2c(=O)n1CCc1ccc(F)cc1`, the GI50 was 1.5 µM in the assay on HOP-62 NSCLC; 2.26 µM in the assay on HS 578T breast; 2.37 µM in the assay with K-562 leukemia; 2.14 µM in the assay on SF-268 CNS; 0.629 µM in the assay on T-47D breast. Moreover, the TGI with HOP-62 NSCLC was 4.44 µM; in the assay with HS 578T breast, above 100 µM; in the assay with K-562 leukemia it was above 100 µM; with SF-268 CNS, 5.98 µM; in the assay with T-47D breast, 6.23 µM.

The term TGI denotes the concentration at which net growth stops. Read a low TGI as greater sensitivity of the cells. What is called GI50 is the concentration at which growth is held to half of that of the control.

Source of the values: PubChem BioAssay (NCI).
